# Assays:
# [1] = biological target: STE20-like serine/threonine-protein kinase (Homo sapiens, UniProt Q9H2G2); experiment: Selectivity interaction (Kinase panel (DSF assay)) EUB0001558a SLK
# [2] = biological target: T1, Casein kinase I isoform alpha-like (Homo sapiens) (UniProt Q8N752); experiment: Selectivity interaction (KinomeScan (DiscoverX)) EUB0000092b CSNK1A1L; details: at 10 µM
# T1 sequence (whole entry): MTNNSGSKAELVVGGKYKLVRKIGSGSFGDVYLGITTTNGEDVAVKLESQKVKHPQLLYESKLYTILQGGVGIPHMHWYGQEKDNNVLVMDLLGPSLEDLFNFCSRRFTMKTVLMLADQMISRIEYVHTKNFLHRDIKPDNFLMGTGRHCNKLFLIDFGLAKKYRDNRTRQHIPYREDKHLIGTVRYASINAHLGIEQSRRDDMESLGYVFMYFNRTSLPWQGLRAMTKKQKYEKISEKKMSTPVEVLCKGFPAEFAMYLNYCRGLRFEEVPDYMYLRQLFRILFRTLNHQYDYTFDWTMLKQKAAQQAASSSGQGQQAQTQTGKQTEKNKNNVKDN
# [3] = biological target: LIM domain kinase 2 (Homo sapiens) (UniProt P53671); experiment: Selectivity interaction (KinomeScan (DiscoverX)) EUB0000695a LIMK2; details: at 100 nM
# [4] = biological target: T2, Cyclin-dependent kinase-like 2 (Homo sapiens) (UniProt Q92772); experiment: Selectivity interaction (KinomeScan (DiscoverX)) EUB0000618a CDKL2; details: at 10 µM
# T2 sequence (whole entry): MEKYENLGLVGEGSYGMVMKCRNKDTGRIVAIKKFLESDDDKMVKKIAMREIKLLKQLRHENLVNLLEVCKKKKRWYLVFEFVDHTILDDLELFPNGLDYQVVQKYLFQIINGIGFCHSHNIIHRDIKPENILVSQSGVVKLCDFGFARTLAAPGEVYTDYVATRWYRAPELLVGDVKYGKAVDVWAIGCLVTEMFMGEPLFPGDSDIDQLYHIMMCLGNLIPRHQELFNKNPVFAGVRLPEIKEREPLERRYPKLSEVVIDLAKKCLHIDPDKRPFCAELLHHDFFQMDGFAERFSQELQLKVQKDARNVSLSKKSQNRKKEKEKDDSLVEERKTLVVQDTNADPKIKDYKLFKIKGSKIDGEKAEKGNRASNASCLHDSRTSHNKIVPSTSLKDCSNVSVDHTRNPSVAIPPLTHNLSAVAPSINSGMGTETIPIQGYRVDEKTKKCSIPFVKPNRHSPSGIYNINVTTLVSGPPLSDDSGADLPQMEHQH
# [5] = biological target: T3, Serine/threonine-protein kinase ULK2 (Homo sapiens) (UniProt Q8IYT8); experiment: Selectivity interaction (KinomeScan (DiscoverX)) EUB0001619a ULK2; details: at 1 µM
# T3 sequence (whole entry): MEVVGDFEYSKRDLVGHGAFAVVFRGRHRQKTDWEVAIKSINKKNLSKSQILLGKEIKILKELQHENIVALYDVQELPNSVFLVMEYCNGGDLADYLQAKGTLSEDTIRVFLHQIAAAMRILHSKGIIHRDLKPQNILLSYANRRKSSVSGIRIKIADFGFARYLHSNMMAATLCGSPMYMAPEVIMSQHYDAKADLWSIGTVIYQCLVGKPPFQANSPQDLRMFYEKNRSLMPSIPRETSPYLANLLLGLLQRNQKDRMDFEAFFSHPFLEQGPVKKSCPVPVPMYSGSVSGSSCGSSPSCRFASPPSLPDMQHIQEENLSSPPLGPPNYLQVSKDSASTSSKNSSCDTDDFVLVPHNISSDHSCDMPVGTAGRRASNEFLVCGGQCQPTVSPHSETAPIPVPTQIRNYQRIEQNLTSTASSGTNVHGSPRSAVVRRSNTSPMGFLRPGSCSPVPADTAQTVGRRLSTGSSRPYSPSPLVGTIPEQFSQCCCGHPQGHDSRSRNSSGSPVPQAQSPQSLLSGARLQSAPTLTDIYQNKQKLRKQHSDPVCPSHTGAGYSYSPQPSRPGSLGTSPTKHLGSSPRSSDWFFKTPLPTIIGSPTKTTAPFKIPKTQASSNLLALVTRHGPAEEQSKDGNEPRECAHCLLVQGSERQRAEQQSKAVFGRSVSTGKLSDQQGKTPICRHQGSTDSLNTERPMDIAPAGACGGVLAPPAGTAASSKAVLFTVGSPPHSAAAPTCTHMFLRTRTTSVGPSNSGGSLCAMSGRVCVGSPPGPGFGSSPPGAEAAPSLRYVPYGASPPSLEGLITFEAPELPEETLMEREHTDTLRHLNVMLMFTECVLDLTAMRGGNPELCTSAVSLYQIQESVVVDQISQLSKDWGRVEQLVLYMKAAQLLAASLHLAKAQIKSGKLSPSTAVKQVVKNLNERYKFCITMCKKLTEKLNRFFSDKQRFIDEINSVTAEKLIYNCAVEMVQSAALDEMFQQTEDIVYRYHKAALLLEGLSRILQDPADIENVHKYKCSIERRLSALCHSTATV
# Sequence of STE20-like serine/threonine-protein kinase (Q9H2G2 whole entry, looked up, canonical isoform): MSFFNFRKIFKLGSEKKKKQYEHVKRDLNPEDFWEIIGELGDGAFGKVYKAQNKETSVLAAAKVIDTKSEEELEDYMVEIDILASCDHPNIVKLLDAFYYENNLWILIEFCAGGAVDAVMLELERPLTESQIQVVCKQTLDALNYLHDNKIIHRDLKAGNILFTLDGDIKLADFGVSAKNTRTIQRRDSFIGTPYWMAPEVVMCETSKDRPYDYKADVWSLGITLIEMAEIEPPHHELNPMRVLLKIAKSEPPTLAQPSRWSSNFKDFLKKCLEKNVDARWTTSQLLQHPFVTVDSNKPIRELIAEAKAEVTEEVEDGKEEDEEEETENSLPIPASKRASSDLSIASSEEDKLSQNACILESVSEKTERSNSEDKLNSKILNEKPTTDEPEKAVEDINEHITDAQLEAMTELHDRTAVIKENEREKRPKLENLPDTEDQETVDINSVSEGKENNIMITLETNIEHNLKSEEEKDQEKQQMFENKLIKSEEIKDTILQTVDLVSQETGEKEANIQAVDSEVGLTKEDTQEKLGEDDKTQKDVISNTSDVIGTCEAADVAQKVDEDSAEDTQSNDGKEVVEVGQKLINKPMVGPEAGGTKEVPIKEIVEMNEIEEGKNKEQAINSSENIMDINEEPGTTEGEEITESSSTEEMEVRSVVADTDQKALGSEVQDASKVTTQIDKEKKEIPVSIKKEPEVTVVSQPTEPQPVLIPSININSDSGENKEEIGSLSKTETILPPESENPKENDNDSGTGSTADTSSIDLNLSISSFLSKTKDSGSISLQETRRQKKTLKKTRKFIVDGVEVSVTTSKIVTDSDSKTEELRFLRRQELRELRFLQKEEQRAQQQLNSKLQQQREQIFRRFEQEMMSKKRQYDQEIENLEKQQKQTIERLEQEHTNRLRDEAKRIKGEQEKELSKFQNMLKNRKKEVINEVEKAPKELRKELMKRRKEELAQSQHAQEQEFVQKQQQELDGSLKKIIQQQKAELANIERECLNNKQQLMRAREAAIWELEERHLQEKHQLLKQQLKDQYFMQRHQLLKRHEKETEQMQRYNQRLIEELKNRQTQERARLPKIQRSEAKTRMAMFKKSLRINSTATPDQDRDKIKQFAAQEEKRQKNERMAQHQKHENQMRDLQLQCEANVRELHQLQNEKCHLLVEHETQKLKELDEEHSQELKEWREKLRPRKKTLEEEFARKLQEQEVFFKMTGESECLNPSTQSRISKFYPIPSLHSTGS
# Sequence of LIM domain kinase 2 (Homo sapiens) (P53671 whole entry, looked up, the tested form may be a part): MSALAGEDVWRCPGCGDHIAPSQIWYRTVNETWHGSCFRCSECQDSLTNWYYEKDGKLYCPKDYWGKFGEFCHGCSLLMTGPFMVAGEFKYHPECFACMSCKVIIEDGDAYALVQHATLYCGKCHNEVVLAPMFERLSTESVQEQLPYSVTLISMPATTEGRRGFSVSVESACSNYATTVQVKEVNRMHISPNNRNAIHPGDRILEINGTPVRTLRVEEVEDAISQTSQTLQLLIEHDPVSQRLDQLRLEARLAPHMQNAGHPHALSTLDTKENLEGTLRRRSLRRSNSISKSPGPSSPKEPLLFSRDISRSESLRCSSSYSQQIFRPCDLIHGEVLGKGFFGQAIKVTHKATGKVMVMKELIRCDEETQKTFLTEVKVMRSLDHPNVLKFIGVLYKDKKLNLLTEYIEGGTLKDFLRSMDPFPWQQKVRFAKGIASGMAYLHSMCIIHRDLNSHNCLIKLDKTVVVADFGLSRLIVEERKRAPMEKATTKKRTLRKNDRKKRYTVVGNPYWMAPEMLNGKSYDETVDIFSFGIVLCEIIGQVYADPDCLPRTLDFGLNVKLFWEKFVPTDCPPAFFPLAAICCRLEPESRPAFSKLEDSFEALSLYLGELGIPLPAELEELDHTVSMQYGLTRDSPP
compound,measurement,setting,value
CC(C)(O)[C@H](F)CN1Cc2cc(NC(=O)c3cnn4cccnc34)c(N3CCOCC3)cc2C1=O,dTM,[1],1.7 K
CCC(=O)N1CCN(c2ccc(-n3c(=O)ccc4cnc5ccc(-c6cnc7ccccc7c6)cc5c43)cc2C(F)(F)F)CC1,% of control,[2],81%
Cc1cc(F)c(C(=O)Nc2cccc(-c3nncn3C(C)C)n2)cc1-n1cnc(C2CC2)c1,% of control,[3],89%
O[C@H]1CC[C@H](Nc2ncc3nc(Nc4c(F)cc(F)cc4F)n([C@H]4CCOC4)c3n2)CC1,% of control,[4],100%
N#Cc1cccc(-c2c[nH]c3ncnc(N4CCOCC4)c23)c1,% of control,[5],69%
